# According to patent US11066396B2 (priority 2016, dated 2021):
# Experiments:
# HDAC8 = HDAC8 (Homo sapiens (Human), UniProt Q9BY41); conditions: read-out: HDAC8 IC50
# HDAC1 = HDAC1 (Homo sapiens (Human), UniProt Q13547); conditions: read-out: HDAC1 IC50
# HDAC5 = HDAC5 (Homo sapiens (Human), UniProt Q9UQL6); conditions: read-out: HDAC5 IC50
# HDAC5, sequence (Q9UQL6 656-1122): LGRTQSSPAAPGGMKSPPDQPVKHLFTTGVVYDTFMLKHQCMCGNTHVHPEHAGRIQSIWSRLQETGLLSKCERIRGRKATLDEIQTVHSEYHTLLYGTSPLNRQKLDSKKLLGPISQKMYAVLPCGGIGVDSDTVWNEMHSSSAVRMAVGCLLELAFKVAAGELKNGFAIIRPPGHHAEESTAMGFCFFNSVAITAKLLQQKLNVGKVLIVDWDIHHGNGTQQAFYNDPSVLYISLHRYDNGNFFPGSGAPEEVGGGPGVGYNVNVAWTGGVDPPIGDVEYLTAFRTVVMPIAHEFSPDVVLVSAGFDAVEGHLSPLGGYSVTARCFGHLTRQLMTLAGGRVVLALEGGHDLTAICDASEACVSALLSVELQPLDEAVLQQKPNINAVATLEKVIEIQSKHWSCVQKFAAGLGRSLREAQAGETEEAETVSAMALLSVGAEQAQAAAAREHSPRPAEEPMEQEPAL
# HDAC1, sequence (Q13547 whole entry): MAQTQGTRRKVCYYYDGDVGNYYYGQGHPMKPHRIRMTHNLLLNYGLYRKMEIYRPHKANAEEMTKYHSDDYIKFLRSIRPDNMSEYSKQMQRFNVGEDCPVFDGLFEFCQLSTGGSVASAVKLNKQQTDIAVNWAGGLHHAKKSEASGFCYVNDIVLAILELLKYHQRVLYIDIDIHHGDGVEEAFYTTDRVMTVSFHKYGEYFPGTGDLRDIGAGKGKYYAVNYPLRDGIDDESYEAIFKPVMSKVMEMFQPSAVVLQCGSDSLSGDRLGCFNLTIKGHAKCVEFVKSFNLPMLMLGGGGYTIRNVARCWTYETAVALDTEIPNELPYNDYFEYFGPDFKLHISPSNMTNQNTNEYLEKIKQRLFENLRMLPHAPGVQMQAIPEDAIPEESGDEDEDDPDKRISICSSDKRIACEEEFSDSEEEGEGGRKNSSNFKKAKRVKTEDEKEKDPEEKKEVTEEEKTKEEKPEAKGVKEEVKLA
# HDAC8, sequence (Q9BY41 whole entry): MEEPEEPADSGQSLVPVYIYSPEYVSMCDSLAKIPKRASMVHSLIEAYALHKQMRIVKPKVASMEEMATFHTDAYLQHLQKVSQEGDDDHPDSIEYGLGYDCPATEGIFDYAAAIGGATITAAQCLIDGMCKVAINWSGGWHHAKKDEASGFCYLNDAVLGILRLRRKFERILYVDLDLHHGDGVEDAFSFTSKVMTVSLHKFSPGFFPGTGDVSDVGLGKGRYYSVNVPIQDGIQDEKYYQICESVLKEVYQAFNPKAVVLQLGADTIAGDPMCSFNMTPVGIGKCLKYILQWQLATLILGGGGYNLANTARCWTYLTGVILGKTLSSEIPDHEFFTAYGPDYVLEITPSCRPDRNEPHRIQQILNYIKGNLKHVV
Structure (SMILES),IC50 (HDAC8) [nM],IC50 (HDAC1) [nM],IC50 (HDAC5) [nM]
"COC(=O)N1CCC(C(=O)N(Cc2ccc(-c3noc(C(F)(F)F)n3)cn2)c2cccc(C(F)(F)F)c2)CC1 [Example 198, methyl 4-{({5-[5-(trifluoromethyl)-1,2,4-oxadiazol-3-yl]pyridin-2-yl}methyl)[3-(trifluoromethyl)phenyl]carbamoyl}piperidine-1-carboxylate]",1300,480,650
"FC(F)(F)c1nc(-c2ccnc(OCc3nc4ccccc4[nH]3)c2)no1 [Example 200, 2-[({4-[5-(trifluoromethyl)-1,2,4-oxadiazol-3-yl]pyridin-2-yl}oxy)methyl]-1H-benzimidazole]",970,450,460
"O=C(C1CCS(=O)(=O)CC1)N(Cc1ccc(-c2noc(C(F)(F)F)n2)cn1)c1ccccc1C(F)(F)F [Example 201, 1,1-dioxo-N-({5-[5-(trifluoromethyl)-1,2,4-oxadiazol-3-yl]pyridin-2-yl}methyl)-N-[2-(trifluoromethyl)phenyl]-llambda~6~-thiane-4-carboxamide]",9200,4000,1400
"Cc1ccncc1COc1ccc(-c2noc(C(F)(F)F)n2)cn1 [Example 202, 2-[(4-methylpyridin-3-yl)methoxy]-5-[5-(trifluoromethyl)-1,2,4-oxadiazol-3-yl]pyridine]",900,2200,730
"Fc1cc(COc2cccc3[nH]nnc23)ccc1-c1noc(C(F)(F)F)n1 [Example 227, 4-({3-fluoro-4-[5-(trifluoromethyl)-1,2,4-oxadiazol-3-yl]phenyl}methoxy)-1H-benzotriazole]",730,1500,65
"Fc1cc(COc2nncc3ccccc23)ccc1-c1noc(C(F)(F)F)n1 [Example 228, 1-({3-fluoro-4-[5-(trifluoromethyl)-1,2,4-oxadiazol-3-yl]phenyl}methoxy)phthalazine]",2000,4300,140
"Cn1nccc1OCc1ccc(-c2noc(C(F)(F)F)n2)c(F)c1 [Example 229, 3-(2-fluoro-4-{[(1-methyl-1H-pyrazol-5-yl)oxy]methyl}phenyl)-5-(trifluoromethyl)-1,2,4-oxadiazole]",4800,3700,140
"Fc1cnc(OCc2ccc(-c3noc(C(F)(F)F)n3)c(F)c2)nc1 [Example 230, 5-fluoro-2-({3-fluoro-4-[5-(trifluoromethyl)-1,2,4-oxadiazol-3-yl]phenyl}methoxy)pyrimidine]",540,8500,200
"O=C1NCCc2c(OCc3ccc(-c4noc(C(F)(F)F)n4)c(F)c3)cccc21 [Example 231, 5-({3-fluoro-4-[5-(trifluoromethyl)-1,2,4-oxadiazol-3-yl]phenyl}methoxy)-3,4-dihydroisoquinolin-1(2H)-one]",45000,6900,110
"Fc1cc(COc2cc[nH]n2)ccc1-c1noc(C(F)(F)F)n1 [Example 232, 3-(2-fluoro-4-{[(1H-pyrazol-3-yl)oxy]methyl}phenyl)-5-(trifluoromethyl)-1,2,4-oxadiazole]",1300,3000,67
"Cn1cccc(OCc2ccc(-c3noc(C(F)(F)F)n3)c(F)c2)c1=O [Example 233, 3-({3-fluoro-4-[5-(trifluoromethyl)-1,2,4-oxadiazol-3-yl]phenyl}methoxy)-1-methylpyridin-2(1H)-one]",2200,1600,170
"Fc1cc(COc2ccc3cnccc3n2)ccc1-c1noc(C(F)(F)F)n1 [Example 234, 2-({3-fluoro-4-[5-(trifluoromethyl)-1,2,4-oxadiazol-3-yl]phenyl}methoxy)-1,6-naphthyridine]",640,370,8.4
"Fc1cc(COc2cncnc2)ccc1-c1noc(C(F)(F)F)n1 [Example 236, 5-({3-fluoro-4-[5-(trifluoromethyl)-1,2,4-oxadiazol-3-yl]phenyl}methoxy)pyrimidine]",2100,3100,42
"Cc1cc(OCc2ccc(-c3noc(C(F)(F)F)n3)c(F)c2)cc(C)n1 [Example 237, 4-({3-fluoro-4-[5-(trifluoromethyl)-1,2,4-oxadiazol-3-yl]phenyl}methoxy)-2,6-dimethylpyridine]",5300,1800,230
"COc1cnnc(OCc2ccc(-c3noc(C(F)(F)F)n3)c(F)c2)c1 [Example 239, 3-({3-fluoro-4-[5-(trifluoromethyl)-1,2,4-oxadiazol-3-yl]phenyl}methoxy)-5-methoxypyridazine]",2400,5900,190
"Fc1cc(COc2ccc3ncnn3c2)ccc1-c1noc(C(F)(F)F)n1 [Example 240, 6-({3-fluoro-4-[5-(trifluoromethyl)-1,2,4-oxadiazol-3-yl]phenyl}methoxy)[1,2,4]triazolo[1,5-a]pyridine]",11000,1500,78
"Cc1nccc(OCc2ccc(-c3noc(C(F)(F)F)n3)c(F)c2)n1 [Example 241, 4-({3-fluoro-4-[5-(trifluoromethyl)-1,2,4-oxadiazol-3-yl]phenyl}methoxy)-2-methylpyrimidine]",3000,3200,48
"Fc1cc(COc2cc(C(F)F)ncn2)ccc1-c1noc(C(F)(F)F)n1 [Example 242, 4-(difluoromethyl)-6-({3-fluoro-4-[5-(trifluoromethyl)-1,2,4-oxadiazol-3-yl]phenyl}methoxy)pyrimidine]",1700,2900,110
"COc1ccc(OCc2ccc(-c3noc(C(F)(F)F)n3)c(F)c2)nc1 [Example 243, 2-({3-fluoro-4-[5-(trifluoromethyl)-1,2,4-oxadiazol-3-yl]phenyl}methoxy)-5-methoxypyridine]",1600,1500,50
"Cc1cncnc1OCc1ccc(-c2noc(C(F)(F)F)n2)c(F)c1 [Example 244, 4-({3-fluoro-4-[5-(trifluoromethyl)-1,2,4-oxadiazol-3-yl]phenyl}methoxy)-5-methylpyrimidine]",1900,3300,130
"Fc1cc(COc2cnc3c(c2)COC3)ccc1-c1noc(C(F)(F)F)n1 [Example 245, 3-({3-fluoro-4-[5-(trifluoromethyl)-1,2,4-oxadiazol-3-yl]phenyl}methoxy)-5,7-dihydrofuro[3,4-b]pyridine]",3400,1500,180
"COc1ncccc1OCc1ccc(-c2noc(C(F)(F)F)n2)c(F)c1 [Example 246, 3-({3-fluoro-4-[5-(trifluoromethyl)-1,2,4-oxadiazol-3-yl]phenyl}methoxy)-2-methoxypyridine]",45000,2400,120
"Cc1nc(OCc2ccc(-c3noc(C(F)(F)F)n3)c(F)c2)c2cnn(C)c2n1 [Example 248, 4-({3-fluoro-4-[5-(trifluoromethyl)-1,2,4-oxadiazol-3-yl]phenyl}methoxy)-1,6-dimethyl-1H-pyrazolo[3,4-d]pyrimidine]",2600,2600,59
